Test system: TNF-α mRNA expression in RBL-2H3 cells
Assay: Validation test in RBL-2H3 cell: TNF-α mRNA expression by antigen stimulation (Real-time PCR)
Type: cell-based, Rat
Conditions: 10 μmol/L, untreated control as 100
Description: 2. Validation Test in RBL-2H3 Cell
(Effect on Inflammation Mediator mRNA Expression by Antigen Stimulation)
After a cell model for an allergic reaction, RBL-2H3 cells, were stimulated by an antigen, mRNA expression level of a typical inflammation mediator, TNF-α, in the cell was measured by a Real-time PCR method. In this manner, a confirmation test for anti-inflammatory effect of Compound 3 was performed.
A test substance (Compound 3) (50 mg) was dissolved by adding 50 vol % ethanol (1 mL) to this to obtain an ethanol solution having a concentration of 50 mg/mL. The resultant solution was diluted with a medium. […] As a control (for comparison), Wortmannin (10 μM) was used. Herein, the concentrations were all indicated as the concentrations in cell supernatants.
RBL-2H3 cells were sensitized with anti-DNP-IgE antibody for 2 hours. A medium or a test solution was added and heat was applied at 37° C. for 10 minutes and then, a DNP-HSA solution was added. A reaction was carried out at 37° C. for 30 minutes. After completion of the reaction, total RNA was extracted from a cell fraction and cDNA was synthesized by use of Random Primer and Reverse Transcriptase. After a specific primer for a desired gene (ITNF-α,β-actin) was added, a Real-time PCR method was carried out in accordance with SYBR Green method using the resultant cDNA as a template to determine the expression level of mRNA. The expression ratio of the desired gene relative to a housekeeping gene, β-actin, was calculated. In this manner, a change in expression level relative to an untreated control was calculated.
Main test conditions and outline of the operation will be described below.
Cell: Rat basophil leukemic cell, RBL-2H3 [Human Sciences Foundation]
Antigen stimulation: Anti-DNP-IgE antibody, DNP labeled albumin
[Sigma-Aldrich Corporation]
Desired genes: IL-4, MCP-1, TNF-α, β-actin (housekeeping gene)
Measurement apparatus: StepOnePlus Real-Time PCR System [Life
Technologies Corporation] Measurement conditions: 95° C. (20 sec)→{95° C. (3 sec)→60° C. (30 sec)}×40 cycles
mRNA expression level (%) was obtained based on the expression level of the untreated control as 100.

COC[C@H]1OC(=O)c2coc3c2[C@@]1(C)C1=C(C3=O)[C@@H]2CCC(=O)[C@@]2(C)C[C@H]1OC(C)=O [Wortmannin, reference compound]
TNF-α mRNA expression level: 45%
